Measurements published in patent publication US20230172915A1, “DHODH INHIBITOR FOR THE TREATMENT OF COVID-19” (priority 2020, published 2023).

Tests used:
[1] = test system: HT1080 human fibrosarcoma cells; assay: De novo pyrimidine nucleotide synthesis from 15N-glutamine in HT1080 cells; type: cell-based; settings: 100 nM
Text: In this Example, fibrosarcoma cells were used to investigate the effect of PTC299 on pyrimidine nucleotide synthesis. Glutamine is an upstream precursor of dihydroorotic acid in the de novo pyrimidine synthesis pathway, as illustrated in FIG. 1.

DHODH = molecular target: T1, DHODH (Homo sapiens, UniProt Q02127); assay: Isolated mitochondria colorimetric assay of DHODH activity; type: biochemical; settings: 0.1, 1, 10, 100, 1000, or 1000 nM
T1 construct: from tissue; host or cells: isolated mitochondria / mitochondria extracts
Text: FIG. 3 is a plot of % inhibition vs compound concentration in nM, illustrating the results of a colorimetric assay of inhibition of DHODH activity in vitro in mitochondria extracts by PTC299, brequinar, and teriflunomide, compared to the negative control, PTC-371.
The latter two compounds are known DHODH inhibitors.

SARS-CoV-2 USA-WA1/2020 = assay: PTC299 and remdesivir alone or combined, SARS-CoV-2 titer in Vero cells (TCID50); type: cell-based; settings: remdesivir 5 µM, 24 hours post infection

T1 sequence (Q02127 whole entry, species assumed): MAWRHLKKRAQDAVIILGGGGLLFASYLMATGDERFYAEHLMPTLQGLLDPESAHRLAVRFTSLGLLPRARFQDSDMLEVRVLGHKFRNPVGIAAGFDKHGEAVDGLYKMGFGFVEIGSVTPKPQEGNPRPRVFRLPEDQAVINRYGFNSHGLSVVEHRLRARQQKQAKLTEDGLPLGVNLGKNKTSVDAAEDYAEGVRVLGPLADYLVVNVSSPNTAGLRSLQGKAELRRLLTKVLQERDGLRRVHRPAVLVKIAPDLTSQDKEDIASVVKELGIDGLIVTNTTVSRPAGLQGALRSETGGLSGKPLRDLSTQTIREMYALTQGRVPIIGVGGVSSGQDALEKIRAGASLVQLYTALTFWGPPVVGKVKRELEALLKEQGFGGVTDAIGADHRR

SMILES	suppression of de novo pyrimidine nucleotide biosynthesis [1]	inhibition of DHODH activity (DHODH)	reduction in titer relative to untreated control (SARS-CoV-2 USA-WA1/2020) [%]
COc1ccc(C2c3[nH]c4ccc(Cl)cc4c3CCN2C(=O)Oc2ccc(Cl)cc2)cc1 (stereo not drawn) [PTC-371, reference compound]	did not suppress de novo pyrimidine nucleotide biosynthesis	no inhibition was observed	
CCC(CC)COC(=O)[C@H](C)N[P@](=O)(OC[C@H]1O[C@@](C#N)(c2ccc3c(N)ncnn23)[C@H](O)[C@@H]1O)Oc1ccccc1 [Remdesivir, remdesivir, reference compound]			86
